Laboratory results taken from patent US9232796B2, “Herbicidal compositions comprising 4-amino-3-chloro-5-fluoro-6-(4-chloro-2-fluoro-3-methoxyphenyl) pyridine-2-carboxylic acid or a derivative thereof and acetyl-CoA carboxylase (ACCase) inhibitors” (DOW AGROSCIENCES LLC, priority 2012, dated 2016).

Experiments:
[1] = tested on: ECHCG; assay: Example VI in-water applied ternary mixtures, greenhouse, transplanted paddy rice weeds; type: in vivo, Echinochloa crus-galli (L.) Beauv.; settings: Table 68, 22.5 gai/ha, 21 DAA
Description: Weed seeds or nutlets of the desired test plant species were planted in puddled soil (mud) prepared by mixing a shredded, non-sterilized mineral soil (50.5 percent silt, 25.5 percent clay, and 24 percent sand, with a pH of about 7.6 and an organic matter content of about 2.9 percent) and water at a 1:1 volumetric ratio. The prepared mud was dispensed in 365 mL aliquots into 16-ounce (oz.) non-perforated plastic pots with a surface area of 86.59 square centimeters (cm^2) leaving a headspace of 3 centimeters (cm) in each pot. Mud was allowed to dry overnight prior to planting or transplanting. Rice seeds were planted in Sun Gro MetroMix® 306 planting mixture, which typically has a pH of 6.0 to 6.8 and an organic matter content of about 30 percent, in plastic plug trays. Seedlings at the second or third leaf stage of growth were transplanted into 860 mL of mud contained in 32-oz. non-perforated plastic pots with a surface area of 86.59 cm^2 4 days prior to herbicide application. The paddy was created by filling the headspace of the pots with 2.5 to 3 cm of water. When required to ensure good germination and healthy plants, a fungicide treatment and/or other chemical or physical treatment was applied. The plants were grown for 4-22 days in a greenhouse with an approximate 14 hr. photoperiod which was maintained at about 29° C. during the day and 26° C. during the night. Nutrients were added as Osmocote® (19:6:12, N:P:K+minor nutrients) at 2 g per 16-oz. pot and 4 g per 32-oz. pot. Water was added on a regular basis to maintain the paddy flood, and supplemental lighting was provided with overhead metal halide 1000-Watt lamps as necessary. The plants were employed for testing when they reached the first through fourth true leaf stage.
Treatments consisted of the benzyl ester of 4-amino-3-chloro-5-fluoro-6-(4-chloro-2-fluoro-3-methoxy-phenyl)pyridine-2-carboxylic acid (Compound A), formulated as an SC (suspension concentrate), an ACCase inhibitor herbicide, and a third herbicidal component, each applied alone and in ternary combination. Forms of compound A were applied on an acid equivalent basis.
The ACCase inhibitor component was applied on an active ingredient basis and included cyhalofop-R-butyl formulated as Clincher® G and metamifop formulated as Metamifop EC. Other herbicidal components were applied on an active ingredient or acid equivalent basis depending on the compound and included penoxsulam formulated as Grasp® SC, bentazon sodium formulated as Basagran®, triclopyr […] (TEA) salt formulated as Grandstand® R, benzobicyclon formulated as Benzobicyclon, benfuresate formulated as Full Slot® WG, pyraclonil formulated as Pyraclon® Flowable, mefenacet (technical grade material), and pretilachlor (technical grade material).
Treatment requirements for each compound or herbicidal component were calculated based upon the rates being tested, the concentration of active ingredient or acid equivalent in the formulation, an application volume of 1 mL per component per pot, and an application area of 86.59 cm^2 per pot.
For formulated compounds, a measured amount was placed in an individual 100 or 200 mL glass vial and was dissolved in a volume of 1.25% (v/v) Agri-Dex® crop oil concentrate to obtain application solutions.
For technical grade compounds, a weighed amount was placed in an individual 100 to 200 mL glass vial and was dissolved in a volume of acetone to obtain concentrated stock solutions.
Applications were made by injecting with a pipetter appropriate amounts of the application solutions, into the aqueous layer of the paddy. Control plants were treated in the same manner with the solvent blank. Applications were made so that all treated plant material received the same concentrations of acetone and crop oil concentrate.
The treated plants and control plants were placed in a greenhouse as described above and water was added as needed to maintain a paddy flood. […]

[2] = tested on: SCPMA; assay: as above; type: in vivo; settings: Table 68, pyraclonil 22.5 gai/ha
[3] = tested on: CYPES; assay: Example I postemergence foliar-applied, greenhouse, direct seeded rice weeds; type: in vivo, Cyperus esculentus L.
Source text: (§1) Seeds or nutlets of the desired test plant species were planted in a soil matrix prepared by mixing a loam or sandy loam soil (e.g., 28.6 percent silt, 18.8 percent clay, and 52.6 percent sand, with a pH of about 5.8 and an organic matter content of about 1.8 percent) and calcareous grit in an 80 to 20 ratio. The soil matrix was contained in plastic pots with a volume of 1 quart and a surface area of 83.6 square centimeters (cm^2). When required to ensure good germination and healthy plants, a fungicide treatment and/or other chemical or physical treatment was applied. The plants were grown for 8-22 days in a greenhouse with an approximate 14 hr. photoperiod which was maintained at about 29° C. during the day and 26° C. during the night. Nutrients (Peters Excel® 15-5-15 5-Ca 2-Mg and iron chelate) were applied in the irrigation solution as needed and water was added on a regular basis. Supplemental lighting was provided with overhead metal halide 1000-Watt lamps as necessary. The plants were employed for testing when they reached the first through fourth true leaf stage.
(§2) Treatments consisted of the acid or esters of 4-amino-3-chloro-5-fluoro-6-(4-chloro-2-fluoro-3-methoxy-phenyl)pyridine-2-carboxylic acid (Compound A), each formulated as an SC (suspension concentrate), and various herbicidal components alone and in combination.
(§3) Other herbicidal components were applied on an acid equivalent (ae) or active ingredient (ai) basis and included acetyl coA carboxylase (ACCase)-inhibiting herbicides (cyclohexanedione and aryloxyphenoxypropionate chemical classes) cyhalofop-butyl formulated as Clincher® SF (285 gr ai/L EC), diclofop-methyl formulated as Hoelon® 3EC, fenoxaprop-p-ethyl+isoxadifen-ethyl formulated as RiceStar® HT (0.58 lb./gal EC), fenoxaprop-p-ethyl+mefenpyr diethyl formulated as Puma® IEC, metamifop formulated as Metamifop EC, haloxyfop-methyl formulated as Gallant Super®, fluazifop-p-butyl formulated as Fusilade® DX, quizalofop-p-ethyl formulated as Assure® II, profoxydim formulated as Aura® 20EC, clethodim applied as Intensity®, sethoxydim formulated as Poast®, and tralkoxydim formulated as Achieve®.
(§4) Treatment requirements were calculated based upon the rates being tested, the concentration of active ingredient or acid equivalent in the formulation, and a 12 mL application volume at a rate of 187 L/ha.
(§5) For treatments comprised of formulated compounds, measured amounts of compounds were placed individually in 25 mL glass vials and diluted in a volume of 1.25% (v/v) Agri-Dex® crop oil concentrated to obtain 12× stock solutions. […] Application solutions were prepared by adding an appropriate amount of each stock solution (e.g., 1 mL) and diluted to the appropriate final concentrations with the addition of 10 mL of an aqueous mixture of 1.25% (v/v) crop oil concentrate so that the final spray solutions contained 1.25+/−0.05% (v/v) crop oil concentrate.
(§6) All stock solutions and applications solutions were visually inspected for compound compatibility prior to application. Spray solutions were applied to the plant material with an overhead Mandel track sprayer equipped with a 8002E nozzles calibrated to deliver 187 L/ha over an application area of 0.503 m^2 at a spray height of 18 to 20 inches (46 to 50 cm) above average plant canopy height. Control plants were sprayed in the same manner with the solvent blank.
(§7) The treated plants and control plants were placed in a greenhouse as described above and watered by sub-irrigation to prevent wash-off of the test compounds. After approximately 3 weeks, the condition of the test plants as compared with that of the untreated plants was determined visually and scored on a scale of 0 to 100 percent where 0 corresponds to no injury or growth inhibition and 100 corresponds to complete kill. […]

[4] = tested on: DIGSA; assay: as above; type: in vivo, Digitaria sanguinalis (L.) Scop.; settings: 70 gai/ha
Source text: as §1
Treatments consisted of the acid or esters of 4-amino-3-chloro-5-fluoro-6-(4-chloro-2-fluoro-3-methoxy-phenyl)pyridine-2-carboxylic acid (Compound A), each formulated as an SC (suspension concentrate), and various herbicidal components alone and in combination. […]
as §4
For treatments comprised of formulated compounds, measured amounts of compounds were placed individually in 25 mL glass vials and diluted in a volume of 1.25% (v/v) Agri-Dex® crop oil concentrated to obtain 12× stock solutions. […]
as §7

[5] = tested on: BRAPP; assay: as above; type: in vivo, Brachiaria platyphylla (Griseb.) Nash; settings: 70 gai/ha
Source text: as §1, §2, §3, §4, §5, §6, §7

[6] = tested on: SCPJU; assay: as above; type: in vivo, Schoenoplectus juncoides (Roxb.) Palla
Source text: as §1, §2, §3, §4, §5, §6, §7

Row | SMILES | Visual Weed Control (%) - 21 DAA ECHCG Obs [1] | Visual Weed Control (%) - 21 DAA SCPMA Obs [2] | Visual Weed Control (%) - 20 DAA CYPES Obs ([3]; 70 gai/ha) | Visual Weed Control (%) - 20 DAA CYPES Obs ([3]; 140 gai/ha) | Visual Weed Control (%) - 20 DAA CYPES Obs ([3]; 280 gai/ha) | Visual Weed Control (%) - 20 DAA DIGSA Obs [4] | Visual Weed Control (%) - 20 DAA BRAPP Obs [5] | Visual Weed Control (%) - 20 DAA SCPJU Obs ([6]; 140 gai/ha) | Visual Weed Control (%) - 20 DAA SCPJU Obs ([6]; 280 gai/ha)
1 | C#CCN(C)c1c(C#N)cnn1-c1nn2c(c1Cl)CCCC2 [Pyraclonil] | 30% | 78% | – | – | – | – | – | – | –
2 | CCSC(C)CC1CC(=O)C(/C(CC)=N/OC/C=C/Cl)=C(O)C1 (stereo not drawn) [Clethodim, 2-[1-[[[(2E)-3-chloro-2-propen-1-yl]oxy]imino]propyl]-5-[2-(ethylthio)propyl]-3-hydroxy-2-cyclohexen-1-one, reference compound] | – | – | 0% | 0% | 0% | 50% | 10% | 0% | 0%
